Measured values from BindingDB's records for doi:10.1016/j.bmc.2012.10.036 (Glaxosmithkline, 2012).

Assay: Inhibition of glucocorticoid receptor in human H13 cells assessed as inhibition of glucocorticoid-induced cell proliferation after 3 hrs by [3H]-thymidine incorporation assay

CC[C@H]1OC(=O)[C@H](C)[C@@H](O[C@H]2C[C@@](C)(OC)[C@@H](O)[C@H](C)O2)[C@H](C)[C@@H](O[C@@H]2O[C@H](C)C[C@H](N(C)C)[C@H]2O)[C@](C)(O)C[C@@H](C)CN(CCCNC(=O)[C@H]2[C@H](C)C[C@H]3[C@@H]4CCC5=CC(=O)C=C[C@]5(C)[C@@]4(F)[C@@H](O)C[C@@]32C)[C@H](C)[C@@H](O)[C@]1(C)O
EC50: 50 nM
